Test results published in patent US12215387B2, “Biomarker predictive of responsiveness to alpha 7 nicotinic acetylcholine receptor activator treatment” (Novartis AG, priority 2012, dated 2025).

System: patients with schizophrenia
Experiment: Continuous Paired Associates Learning (CPAL) test of the CogState schizophrenia battery, by CYP1A2 rs2069514 genotype
Format: in vivo, human
Text: To measure the effect of alpha 7 nicotinic acetylcholine receptor activator treatment on the cognitive skills of schizophrenic patients, an adequate cognitive test battery (CogState™) with short duration (as described in detail below) was applied allowing multiple time points measurements during the treatment period (Pietrzak, et al 2009; Maruff, et al 2009).
The CPAL task is a validated test that assesses visual episodic memory (associate learning). This test has been used previously in schizophrenia. Before beginning this task, the test supervisor reads the full instructions to the patient from the test supervisor script. On the CPAL test, participants must learn a series of associations between a set of difficult to verbalize patterns and locations. In the presentation phase of the task, the pattern appears at the location and the subject is required to acknowledge that they have seen the pattern by touching the location at which it appears. At this stage of the task the patient will also see that there are two locations at which no target appears (distractor locations). Patterns are presented, in random order. However, once presented the pattern remains at the same location throughout the task. In the learning phase of the task, patients must place each of the eight patterns in their correct locations. They must do this in six rounds. For the first round, one of the patterns is presented in the centre location and the subject is required to remember the location at which it had been shown. They indicate the location by touching it. If they touch the incorrect location, a visual and audible signal occurs (a red cross appears over the location and a buzzer sound is presented). The patient is then required to choose a second location. This process continues until the patient has correctly placed all […] of the targets in their correct locations. Once all eight patterns have been placed correctly, the second round begins. In the second round the patterns remain in the same locations, but their order of presentation in the centre of the screen is different to that of the first round (randomized). The process of placing each target in the correct location proceeds as it did in the first round. When the second round is complete, the same process is repeated as the rounds progress the number of errors made in placing the patterns in their correct locations reduces. Administration time is approximately 5 minutes in healthy volunteers. Patients with Schizophrenia would be expected to complete the task within about 12 minutes.
The assessment of activity was obtained from a statistical analysis of the post dose Area Under the Effect Curve (AUEC) 4-10 on CPAL as follows: variables were separately analyzed by means of a linear mixed effect model adjusted for the period-specific baseline value for the scale, the treatment group, the period, and the sequence as fixed effects, and for the patient as a random effect. The period-specific baseline value for the scale was obtained from the average of the period-specific Day −1 values and from the pre-dose value. The mean treatment difference (and its 95% CI) between each B-5 dose group and placebo was obtained from the model. The effect size was obtained by dividing the mean treatment difference (and its 95% CI) by the square root of twice the estimated variance of the residual error. Activity, as defined in the paragraph above, was assessed from the effect size of CPAL.
In an attempt to identify a subset of patients who respond to B-5 treatment, a study in a population of 29 individuals using the CPAL assessment was conducted. The purpose was to investigate the relationship between the genetic variants rs2069514 (SEQ IDs NO. 1 and 2) in the CYP1A2 gene and B-5 efficacy in the study. In the study, B-5 mono-fumarate was used in the form of hard gelatin capsules as described in Example E. […]

Cc1ccc(-c2ccc(O[C@H]3CN4CCC3CC4)cn2)cc1 [B-5, (R)-3-(6-p-tolyl-pyridin-3-yloxy)-1-aza-bicyclo[2.2.2]octane]
CPAL - AUC4-10 Estimated mean AUC 4-10 (CYP1A2 genotype GG (n = 15), B-5 2 mg): 414.75 Total # errors × Hours
CPAL - AUC4-10 Placebo - B-5 Effect size (CYP1A2 genotype GG (n = 15), B-5 2 mg, P-value 0.59): 0.15
CPAL - AUC4-10 Estimated mean AUC 4-10 (CYP1A2 genotype GG (n = 15), B-5 15 mg): 481.4 Total # errors × Hours
CPAL - AUC4-10 Placebo - B-5 Effect size (CYP1A2 genotype GG (n = 15), B-5 15 mg, P-value 0.6706): −0.12
CPAL - AUC4-10 Estimated mean AUC 4-10 (CYP1A2 genotype GG (n = 15), B-5 100 mg): 457.45 Total # errors × Hours
CPAL - AUC4-10 Placebo - B-5 Effect size (CYP1A2 genotype GG (n = 15), B-5 100 mg, P-value 0.9344): −0.02
CPAL - AUC4-10 Estimated mean AUC 4-10 (CYP1A2 genotypes AA + AG (n = 14), B-5 2 mg): 411.15 Total # errors × Hours
CPAL - AUC4-10 Placebo - B-5 Effect size (CYP1A2 genotypes AA + AG (n = 14), B-5 2 mg, P-value 0.018): 0.68
CPAL - AUC4-10 Estimated mean AUC 4-10 (CYP1A2 genotypes AA + AG (n = 14), B-5 15 mg): 372.82 Total # errors × Hours
CPAL - AUC4-10 Placebo - B-5 Effect size (CYP1A2 genotypes AA + AG (n = 14), B-5 15 mg, P-value 0.0023): 0.91
CPAL - AUC4-10 Estimated mean AUC 4-10 (CYP1A2 genotypes AA + AG (n = 14), B-5 100 mg): 384.9 Total # errors × Hours
CPAL - AUC4-10 Placebo - B-5 Effect size (CYP1A2 genotypes AA + AG (n = 14), B-5 100 mg, P-value 0.0043): 0.83
improvement on cognitive function (patients homozygous rs2069514-G/G): did not show any significant improvement
response on visual learning and memory (CPAL) compared to placebo (patients rs2069514 A/A or A/G, 2 mg p=0.018, 15 mg p=0.0023, 100 mg p=0.0043): significant response
